The source of these data is patent US20250320206A1, “STAT6 DEGRADERS” (Gilead Sciences, Inc., priority 2024, published 2025).

In assay [1] the test system is Eotaxin-3 release in human whole blood stimulated with IL-4. Description: Human Whole Blood Eotaxin-3 Assay (IL-4 stimulated eotaxin-3 release). Type of assay: cell-based. Conditions: IL-4 stimulation, 48 h, values given for compounds with >80% Emax, geometric mean. An outline of the steps: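 Lithium-heparin human whole blood preincubated 2 h at 37° C with 4-fold serially diluted compounds (0.5% DMSO), then stimulated with recombinant human IL-4 ([…]) for 48 h. Eotaxin-3 (CCL26) in supernatant quantified by MSD immunoassay.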

The next assay has as its target T1, STAT6 (Homo sapiens, UniProt P42226).
T1 construct: These cells express endogenous STAT6; host or cells: HeLa LgBiT clone 4.14
T1 sequence (P42226 1-847): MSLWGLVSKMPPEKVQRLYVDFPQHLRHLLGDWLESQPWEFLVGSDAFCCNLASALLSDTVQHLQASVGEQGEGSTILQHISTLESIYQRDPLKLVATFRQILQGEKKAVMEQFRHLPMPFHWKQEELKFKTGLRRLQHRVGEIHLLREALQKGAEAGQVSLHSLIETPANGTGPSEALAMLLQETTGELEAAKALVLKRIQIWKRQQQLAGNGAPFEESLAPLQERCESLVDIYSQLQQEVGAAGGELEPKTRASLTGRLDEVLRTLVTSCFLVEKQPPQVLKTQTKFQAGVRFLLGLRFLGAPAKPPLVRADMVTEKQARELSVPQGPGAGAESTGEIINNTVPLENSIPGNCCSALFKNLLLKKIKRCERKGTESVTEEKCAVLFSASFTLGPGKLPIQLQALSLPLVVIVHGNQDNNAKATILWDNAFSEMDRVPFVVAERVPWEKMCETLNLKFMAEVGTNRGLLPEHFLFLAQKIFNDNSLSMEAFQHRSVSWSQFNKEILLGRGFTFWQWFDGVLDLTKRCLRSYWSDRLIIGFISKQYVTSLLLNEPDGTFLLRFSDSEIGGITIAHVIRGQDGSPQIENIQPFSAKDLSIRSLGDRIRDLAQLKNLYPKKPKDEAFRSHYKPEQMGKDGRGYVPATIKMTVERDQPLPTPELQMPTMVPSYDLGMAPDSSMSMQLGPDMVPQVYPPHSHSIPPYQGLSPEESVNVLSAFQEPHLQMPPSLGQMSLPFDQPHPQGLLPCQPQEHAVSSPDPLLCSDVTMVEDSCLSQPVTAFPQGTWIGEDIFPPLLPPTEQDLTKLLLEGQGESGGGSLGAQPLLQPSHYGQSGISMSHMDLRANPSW
Description: Stat6 Degrader Assay (HiBiT based, HeLa LgBiT clone 4.14). Type of assay: cell-based. As to conditions: HeLa LgBiT clone 4.14 HiBiT-STAT6, 4-24 h incubation; values given for compounds with >80% Emax; geometric mean; read-out: STAT6 degradation DC50. The gist of the method: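 HeLa LgBiT clone 4.14 cells with CRISPR HiBiT-tagged endogenous STAT6, 5000 cells/well, compound dosed then incubated 4-24 h at 37° C, 5% CO2. Nano-Glo substrate added, 0.5 h, luminescence read as non-degraded STAT6. Terfenadine 50 μM (cell kill) defines 100% degradation.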
(In general: The HiBiT peptide binds its large partner to form an active luciferase.)

Structures are written as SMILES.

What is called EC50 is the concentration that produces a half-maximal response. A high value points to weaker potency. In general, DC50 refers to the concentration at which degradation of the target reaches its halfway point. On to `CNc1ccn(-c2ccnc3c2cc([C@H](C)N2CC=C(c4c(C)cc(C(=O)N5CCC(CN6CCN(Cc7cc8c(cc7F)n(C7CCC(=O)NC7=O)c(=O)n8C7CC7)C[C@@H]6C)CC5)cc4F)CC2)n3C)c(=O)c1` (stereo partly drawn) [Example 3u166, 3-(3-cyclopropyl-6-fluoro-5-(((S)-4-((1-(3-fluoro-5-methyl-4-(1-((S)-1-(1-methyl-4-(4-(methylamino)-2-oxopyridin-1 (2H)-yl)-1H-pyrrolo[2,3-b]pyridin-2-yl)ethyl)-1,2,3,6-tetrahydropyridin-4-yl)benzoyl)piperidin-4-yl)methyl)-3-methylpiperazin-1-yl)methyl)-2-oxo-2,3-dihydro-1H-benzo[d]imidazol-1-yl)piperidine-2,6-dione], for which a half-maximal response in assay [1] (EC50) required 1.3 nM. Also, on STAT6, the DC50 came to 1.1 nM.

In assay [1], `CNc1ccn(-c2ccnc3c2cc(CN2CCC(c4c(C)cc(C(=O)N5CCC(CN6CCN(Cc7ccc8c(c7)n(C)c(=O)n8[C@@H]7CCC(=O)NC7=O)CC6)CC5)cc4F)CC2)n3C)c(=O)c1` (single isomer, unassigned) [Example 3u159] registered a half-maximal effective concentration (EC50) of 52.6 nM. Also, the DC50 on STAT6 came to 12.8 nM.

Take `CNc1ccn(-c2ccnc3c2cc([C@H](C)N2CC=C(c4c(C)cc(C(=O)N(C)c5ccc(C6CCN(Cc7ccc8c(c7)C(C)(C)C(=O)N8C7CCC(=O)NC7=O)CC6)cc5)cc4F)CC2)n3C)c(=O)c1` (stereo partly drawn) [Example 3u232, N-(4-(1-((1-(2,6-dioxopiperidin-3-yl)-3,3-dimethyl-2-oxoindolin-5-yl)methyl)-piperidin-4-yl)phenyl)-3-fluoro-N,5-dimethyl-4-(1-((S)-1-(1-methyl-4-(4-(methylamino)-2-oxopyridin-1 (2H)-yl)-1H-pyrrolo[2,3-b]pyridin-2-yl)ethyl)-1,2,3,6-tetrahydropyridin-4-yl)benzamide]: in assay [1], the half-maximal effective concentration (EC50) is 0.8 nM. Moreover, on STAT6, the DC50 came out at 0.1 nM.

For `CNc1ccn(-c2ccnc3c2cc([C@H](C)N2CC=C(c4c(C)cc(C(=O)N5CCC(CN6CCN(c7ccc8c(c7)n(C7CC7)c(=O)n8C7CCC(=O)NC7=O)CC6)CC5)cc4F)CC2)n3C)c(=O)c1` (stereo partly drawn) [Example 3u287, 3-(3-cyclopropyl-5-(4-((1-(3-fluoro-5-methyl-4-(1-((S)-1-(1-methyl-4-(4-(methyl-amino)-2-oxopyridin-1 (2H)-yl)-1H-pyrrolo[2,3-b]pyridin-2-yl)ethyl)-1,2,3,6-tetrahydropyridin-4-yl)benzoyl)piperidin-4-yl)methyl)piperazin-1-yl)-2-oxo-2,3-dihydro-1H-benzo[d]imidazol-1-yl)-piperidine-2,6-dione], the concentration for a half-maximal effect (EC50) in assay [1] worked out at 2.9 nM. The DC50 on STAT6 was 2.7 nM.

In the case of `CNc1cc(=O)n(-c2ccnc3c2cc(CN2CCC(c4c(F)cc(C(=O)N5CCC(CN6CCN(Cc7ccc8c(c7)C(C)(C)C(=O)N8[C@H]7CCC(=O)NC7=O)C[C@@H]6C)CC5)cc4F)CC2)n3C)cc1F` (single isomer, unassigned) [Example 3u49], the half-maximal effective concentration (EC50) in assay [1] stood at 12.9 nM. The 50% degradation concentration (DC50) at STAT6 came to 1.7 nM.

`CNc1ccn(-c2ccnc3c2cc(CN2CCC(c4c(F)cc(C(=O)N5CCC(CN6CCN(Cc7ccc8c(c7)n(C)c(=O)n8C7CCC(=O)NC7=O)CC6)CC5)cc4F)CC2)n3C)c(=O)c1` (centres unmarked) [Example 3u29, 3-(5-((4-((1-(3,5-difluoro-4-(1-((1-methyl-4-(4-(methylamino)-2-oxopyridin-1 (2H)-yl)-1H-pyrrolo[2,3-b]pyridin-2-yl)methyl)piperidin-4-yl)benzoyl)piperidin-4-yl)methyl)piperazin-1-yl)methyl)-3-methyl-2-oxo-2,3-dihydro-1H-benzo[d]imidazol-1-yl)piperidine-2,6-dione] showed an EC50 in assay [1] of 0.9 nM. For the same compound, the DC50 on STAT6 is 1.7 nM.

Regarding `CNc1cc(=O)n(-c2ccnc3c2cc([C@H](C)N2CC=C(c4c(F)cc(C(=O)N5CCC(CN6CCN(Cc7ccc8c(c7)n(C7CC7)c(=O)n8C7CCC(=O)NC7=O)C[C@@H]6C)CC5)cc4F)CC2)n3C)cc1F` (stereo partly drawn) [Example 3u128, 3-(3-cyclopropyl-5-(((S)-4-((1-(3,5-difluoro-4-(1-((S)-1-(4-(5-fluoro-4-(methylamino)-2-oxopyridin-1 (2H)-yl)-1-methyl-1H-pyrrolo[2,3-b]pyridin-2-yl)ethyl)-1,2,3,6-tetrahydropyridin-4-yl)benzoyl)piperidin-4-yl)methyl)-3-methylpiperazin-1-yl)methyl)-2-oxo-2,3-dihydro-1H-benzo[d]imidazol-1-yl)piperidine-2,6-dione], the midpoint of the response in assay [1], the EC50, lay at 1.6 nM. The half-maximal degradation concentration (DC50) on STAT6 came to 1.1 nM.

Compound `CNc1ccn(-c2ccnc3c2cc([C@H](C)N2CC=C(c4c(C)cc(C(=O)N5CCC(CN6CCN(Cc7cc8c(cc7F)n([C@H]7CCC(=O)NC7=O)c(=O)n8C)CC6)CC5)cc4F)CC2)n3C)c(=O)c1` (single isomer, unassigned) [Example 3u11] showed an EC50 in assay [1] of 0.2 nM. Besides, the DC50 at STAT6 was 0.5 nM.

For the compound `CNc1ccn(-c2ccnc3c2cc([C@H](C)N2CC=C(c4c(C)cc(C(=O)N5CCC(CN6CCN(Cc7cc8c(cc7F)n([C@@H]7CCC(=O)NC7=O)c(=O)n8C)C[C@@H]6C)CC5)cc4F)CC2)n3C)c(=O)c1` (single isomer, unassigned) [Example 3u209], in assay [1], it took 0.7 nM to reach a half-maximal effect (EC50). For the same compound, the DC50 at STAT6 was 7.3 nM.

In assay [1], `CNc1cc(=O)n(-c2ccnc3c2cc([C@H](C)N2CC=C(c4c(F)cc(C(=O)N5CCC(CN6CCN(Cc7ccc8c(c7)n(C)c(=O)n8[C@H]7CCC(=O)NC7=O)CC6)CC5)cc4F)CC2)n3C)cc1F` (single isomer, unassigned) [Example 3u52] gave a concentration giving a half-maximal response (EC50) of 1.1 nM. Also, on STAT6, the DC50 came out at 4.3 nM.

`CNc1ccn(-c2ccnc3c2cc(CN2CCC(c4c(F)cc(C(=O)N5CCC(CN6CCN(Cc7ccc8c(c7)C(C)(C)C(=O)N8C7CCC(=O)NC7=O)CC6)CC5)cc4F)CC2)n3C)c(=O)c1` (centres unmarked) [Example 3u16, 3-(5-((4-((1-(3,5-difluoro-4-(1-((1-methyl-4-(4-(methylamino)-2-oxopyridin-1 (2H)-yl)-1H-pyrrolo[2,3-b]pyridin-2-yl)methyl)piperidin-4-yl)benzoyl)piperidin-4-yl)methyl)piperazin-1-yl)-methyl)-3,3-dimethyl-2-oxoindolin-1-yl)piperidine-2,6-dione] had a concentration giving a half-maximal response (EC50) in assay [1] of 12.1 nM. In addition, on STAT6, the 50% degradation concentration (DC50) amounted to 11.2 nM.

Regarding `CNc1ccn(-c2ccnc3c2cc(CN2CC=C(c4c(F)cc(C(=O)N5CCC(CN6CCN(Cc7ccc8c(c7)C(C)(C)C(=O)N8[C@H]7CCC(=O)NC7=O)C[C@@H]6C)CC5)cc4F)CC2)n3C)c(=O)c1` (single isomer, unassigned) [Example 3u46], in assay [1], a half-maximal effect (EC50) was put at 10.1 nM. Besides, the 50% degradation concentration (DC50) on STAT6 was 5.8 nM.

As for `Cc1cc(C(=O)N(C)c2ccc(C3CCN(Cc4ccc5c(c4)n(C)c(=O)n5C4CCC(=O)NC4=O)CC3)cc2)cc(F)c1C1=CCN([C@@H](C)c2cc3c(-n4ccc5c(c4=O)CCN5)ccnc3n2C)CC1` (stereo partly drawn) [Example 3u250, N-(4-(1-((1-(2,6-dioxopiperidin-3-yl)-3-methyl-2-oxo-2,3-dihydro-1H-benzo[d]imidazol-5-yl)methyl)piperidin-4-yl)phenyl)-3-fluoro-N,5-dimethyl-4-(1-((S)-1-(1-methyl-4-(4-oxo-1,2,3,4-tetrahydro-5H-pyrrolo[3,2-c]pyridin-5-yl)-1H-pyrrolo[2,3-b]pyridin-2-yl)ethyl)-1,2,3,6-tetrahydropyridin-4-yl)benzamide], the midpoint of the response in assay [1], the EC50, lay at 0.4 nM. Also, the DC50 on STAT6 came out at 0.1 nM.
